# According to patent US8383581B2, “Short-chain peptides as parathyroid hormone (PTH) receptor agonist” (Cadila Healthcare Limited, priority 2009, dated 2013):
# Where a SMILES comes first, the peptide text is derived from it. [ ]: non-standard residue; d: D form. ξ: configuration not given here. ξBip(2'-Et-4'-OMe) = CCc1cc(OC)ccc1-c1ccc(CC(N)C(=O)O)cc1; Arg(NO2) = N=C(NCCC[C@H](N)C(=O)O)N[N+](=O)[O-]; αMePhe(2,6-F2) = C[C@](N)(Cc1c(F)cccc1F)C(=O)O; ξαMePhe(2,6-F2) = CC(N)(Cc1c(F)cccc1F)C(=O)O; αMePhe(2-F) = C[C@](N)(Cc1ccccc1F)C(=O)O; ξαMePhe(2-F) = CC(N)(Cc1ccccc1F)C(=O)O; ξαMeW = CC(N)(Cc1c[nH]c2ccccc12)C(=O)O; hhPhe = N[C@@H](CCCc1ccccc1)C(=O)O; hArg = N=C(N)NCCCC[C@H](N)C(=O)O; hCit = NC(=O)NCCCC[C@H](N)C(=O)O; Cit = NC(=O)NCCC[C@H](N)C(=O)O; ξαMeNle = CCCCC(C)(N)C(=O)O; Nle = CCCC[C@H](N)C(=O)O; Orn = NCCC[C@H](N)C(=O)O; Ac5c = NC1(C(=O)O)CCCC1; Ac3c = NC1(C(=O)O)CC1; Aib = CC(C)(N)C(=O)O
# Assays:
# Type in all cases: in vitro ADME
# [1] = Stability of peptides in simulated gastric fluid (pH 1.5; HCl, NaCl and Pepsin); settings: pH 1.5; for % degradation of peptides in 24 h when incubated with simulated gastric fluid: 2 μM; for half-life / half-life (t1/2) in simulated gastric fluid: simulated gi fluid
# Experimental: (§1) b) Stability of Peptides in Human Plasma, Simulated Gastric Fluid, Intestinal Fluid and Liver Microsomes (Ex-Vivo): Different short-chain peptides (final concentration 2 μM) were incubated with either pooled human plasma (7.5 μL) or simulated gastric fluid (pH 1.5; composition HCl, NaCl and Pepsin) or simulated intestinal fluid (pH 7.5) or human liver microsomes, for 0, 2, 4, 6, 12 and 24 h (37° C.; 50 mM triethanolamine-HCl buffer; pH 7.8). Concentrations of human plasma/simulated gastric fluid/simulated intestinal fluid/human liver microsomes were selected in preliminary experiments to provide degradation of approximately 50% of PTH(1-34) within 1 h, therefore allowing time-dependent degradation to be viewed over 24 h. Reactions were terminated by the addition of TFA/H2O ([…], 10% (v/v)). The reaction products were then applied to a Vydac C18 analytical column (4.6×250-mm) and the major degradation fragment separated from intact short-chain peptides. The column was equilibrated with TFA/H20, at a flow rate of 1 mL/min. Using 0.1% (v/v) TFA in 70% acetonitrile/H2O, the concentration of acetonitrile in the eluting solvent was raised from 0% to 28% over 10 min and from 28% to 42% over 30 min. The absorbance was monitored at 206 nm using UV detector and peaks were collected manually prior to ESI-MS analysis. Area under the curve was measured for test peptides and their metabolites and percentage degradation were calculated at each time point over a period of 24 h. Stability study results of selected peptides, in human plasma, simulated gastric fluid, intestinal fluid and liver microsomes (in vitro) are listed in Table 4.
# [2] = Stability of peptides in human plasma; settings: human, plasma; for metabolised at 24 h, 2 μM: pH 7.8
# Experimental: as §1
# [3] = Stability of peptides in simulated intestinal fluid (pH 7.5); settings: pH 7.5; for half-life / half-life (t1/2) in simulated intestinal fluid: simulated gi fluid; for % degradation of peptides in 24 h when incubated with simulated intestinal fluid: 2 μM
# Experimental: as §1
# [4] = Stability of peptides in human liver microsomes; settings: human, microsomes; for % degradation of peptides in 24 h when incubated with liver microsomes: 2 μM, pH 7.8
# Experimental: as §1
Compound,% degradation of peptides in 24 h when incubated with simulated gastric fluid [1],half-life [1],half-life [2],"metabolised at 24 h, 2 μM [2]",half-life [3],% degradation of peptides in 24 h when incubated with simulated intestinal fluid [3],half-life (t1/2) in liver microsomes [4],% degradation of peptides in 24 h when incubated with liver microsomes [4],half-life (t1/2) in simulated gastric fluid [1],half-life (t1/2) in simulated intestinal fluid [3],half-life [4],half-life (t1/2) in human plasma [2]
"CCCC[C@H](NC(=O)C(C)(Cc1ccccc1F)NC(=O)[C@H](CCC(N)=O)NC(=O)[C@@H](NC(=O)[C@H](CCC(=O)O)NC(=O)C(C)(C)NC(=O)[C@@H](NC(=O)C(C)(C)N)C(C)C)[C@@H](C)CC)C(=O)N[C@@H](Cc1c[nH]cn1)C(=O)N[C@@H](CCC(N)=O)C(=O)N[C@@H](CCCCNC(=N)N)C(=O)NC(C)(C)C(=O)NC(C)(C)C(=O)NC(C)(Cc1c(F)cccc1F)C(N)=O (stereo partly drawn) [Seq. ID. 182] (H-[Aib]V[Aib]EIQ[ξαMePhe(2-F)][Nle]HQ[hArg][Aib][Aib][ξαMePhe(2,6-F2)]-NH2)",00%,> 24 h,> 24 h,0%,> 24 h,00%,(5) h,26%,,,,
CCCC[C@H](NC(=O)C(C)(Cc1ccccc1F)NC(=O)[C@H](CCC(N)=O)NC(=O)[C@@H](NC(=O)[C@H](CCC(=O)O)NC(=O)C(C)(C)NC(=O)[C@@H](NC(=O)C1(N)CCCC1)C(C)C)[C@@H](C)CC)C(=O)N[C@@H](Cc1c[nH]cn1)C(=O)N[C@@H](CCC(N)=O)C(=O)N[C@@H](CCCCNC(=N)N)C(=O)NC(C)(C)C(=O)N[C@@H](CCCNC(=N)N[N+](=O)[O-])C(=O)NC(C)(Cc1ccccc1F)C(N)=O (stereo partly drawn) [Seq. ID. 250] (H-[Ac5c]V[Aib]EIQ[ξαMePhe(2-F)][Nle]HQ[hArg][Aib][Arg(NO2)][ξαMePhe(2-F)]-NH2),14%,,8 h,78%,,43%,,80%,(8) h,(6) h,1 h,
"CCCC[C@H](NC(=O)C(C)(Cc1ccccc1F)NC(=O)[C@H](CCC(N)=O)NC(=O)[C@@H](NC(=O)[C@H](CCC(=O)O)NC(=O)C(C)(C)NC(=O)[C@@H](NC(=O)C1(N)CCCC1)C(C)C)[C@@H](C)CC)C(=O)N[C@@H](Cc1c[nH]cn1)C(=O)N[C@@H](CCC(N)=O)C(=O)N[C@@H](CCCN)C(=O)N[C@@H](C)C(=O)NC(C)(Cc1c(F)cccc1F)C(=O)NC(C)(Cc1ccccc1F)C(N)=O (stereo partly drawn) [Seq. ID. 315] (H-[Ac5c]V[Aib]EIQ[ξαMePhe(2-F)][Nle]HQ[Orn]A[ξαMePhe(2,6-F2)][ξαMePhe(2-F)]-NH2)",100%,0.5 h,,71%,0.5 h,100%,,100%,,,0.5 h,(9) h
CCCC[C@H](NC(=O)C(C)(Cc1ccccc1F)NC(=O)[C@H](CCC(N)=O)NC(=O)[C@@H](NC(=O)[C@H](CCC(=O)O)NC(=O)C(C)(C)NC(=O)[C@@H](NC(=O)C1(N)CCCC1)C(C)C)[C@@H](C)CC)C(=O)N[C@@H](Cc1c[nH]cn1)C(=O)N[C@@H](CCC(N)=O)C(=O)N[C@@H](CCCCNC(N)=O)C(=O)NC(C)(C)C(=O)N[C@@H](CCCNC(=N)N[N+](=O)[O-])C(=O)NC(C)(Cc1ccccc1F)C(N)=O (stereo partly drawn) [Seq. ID. 460] (H-[Ac5c]V[Aib]EIQ[ξαMePhe(2-F)][Nle]HQ[hCit][Aib][Arg(NO2)][ξαMePhe(2-F)]-NH2),14%,,8 h,71%,,40%,,78%,(8) h,(6) h,1 h,
"CCCC[C@H](NC(=O)[C@](C)(Cc1ccccc1F)NC(=O)[C@H](CCC(N)=O)NC(=O)[C@@H](NC(=O)[C@H](CCC(=O)O)NC(=O)C(C)(C)NC(=O)[C@@H](NC(=O)C(C)(C)N)C(C)C)[C@@H](C)CC)C(=O)N[C@@H](Cc1c[nH]cn1)C(=O)N[C@@H](CCC(N)=O)C(=O)N[C@@H](CCCCNC(=N)N)C(=O)NC(C)(C)C(=O)N[C@@H](CCCNC(N)=O)C(=O)N[C@@](C)(Cc1c(F)cccc1F)C(N)=O [Seq. ID. 142] (H-[Aib]V[Aib]EIQ[αMePhe(2-F)][Nle]HQ[hArg][Aib][Cit][αMePhe(2,6-F2)]-NH2)",13%,,8 h,80%,,50%,,82%,(8) h,(6) h,1 h,
CCCC[C@H](NC(=O)C(C)(Cc1ccccc1F)NC(=O)[C@H](CCC(N)=O)NC(=O)[C@@H](NC(=O)[C@H](CCC(=O)O)NC(=O)C(C)(C)NC(=O)[C@@H](NC(=O)C(C)(C)N)C(C)C)[C@@H](C)CC)C(=O)N[C@@H](Cc1c[nH]cn1)C(=O)N[C@@H](CCC(N)=O)C(=O)N[C@@H](CCCCNC(=N)N)C(=O)N[C@@H](C)C(=O)NC(C)(C)C(=O)NC(C)(Cc1ccccc1F)C(N)=O (stereo partly drawn) [Seq. ID. 161] (H-[Aib]V[Aib]EIQ[ξαMePhe(2-F)][Nle]HQ[hArg]A[Aib][ξαMePhe(2-F)]-NH2),14%,,8 h,78%,,43%,,80%,(8) h,(6) h,1 h,

# Continued, values first:
% degradation of peptides in 24 h when incubated with simulated gastric fluid [1],half-life [1],half-life [2],"metabolised at 24 h, 2 μM [2]",half-life [3],% degradation of peptides in 24 h when incubated with simulated intestinal fluid [3],half-life (t1/2) in liver microsomes [4],% degradation of peptides in 24 h when incubated with liver microsomes [4],half-life (t1/2) in simulated gastric fluid [1],half-life (t1/2) in simulated intestinal fluid [3],half-life [4],half-life (t1/2) in human plasma [2],Compound
55%,4 h,> 22 h,5%,> 24 h,00%,,84%,,,2 h,,CCCC[C@H](NC(=O)[C@H](CC(C)C)NC(=O)[C@H](CCC(N)=O)NC(=O)[C@@H](NC(=O)[C@H](CCC(=O)O)NC(=O)C(C)(C)NC(=O)[C@@H](NC(=O)C(C)(C)N)C(C)C)[C@@H](C)CC)C(=O)N[C@@H](Cc1c[nH]cn1)C(=O)N[C@@H](CCC(N)=O)C(=O)N[C@@H](CCCCNC(=N)N)C(=O)N[C@@H](C)C(=O)N[C@@H](CCCNC(=N)N)C(=O)NC(Cc1ccc(-c2ccc(OC)cc2CC)cc1)C(=O)N[C@@H](CCCc1ccccc1)C(N)=O (stereo partly drawn) [Seq. ID. 730] (H-[Aib]V[Aib]EIQL[Nle]HQ[hArg]AR[ξBip(2'-Et-4'-OMe)][hhPhe]-NH2)
43%,4 h,> 24 h,0%,> 24 h,00%,,84%,,,2 h,,CCCC[C@H](NC(=O)[C@H](CC(C)C)NC(=O)[C@H](CCC(N)=O)NC(=O)[C@@H](NC(=O)[C@H](CCC(=O)O)NC(=O)C(C)(C)NC(=O)[C@@H](NC(=O)C(C)(C)N)C(C)C)[C@@H](C)CC)C(=O)N[C@@H](Cc1c[nH]cn1)C(=O)N[C@@H](CCC(N)=O)C(=O)N[C@@H](CCCCNC(N)=O)C(=O)NC(C)(C)C(=O)NC(C)(C)C(=O)NC(Cc1ccc(-c2ccc(OC)cc2CC)cc1)C(=O)N[C@@H](CCCc1ccccc1)C(N)=O (stereo partly drawn) [Seq. ID. 790] (H-[Aib]V[Aib]EIQL[Nle]HQ[hCit][Aib][Aib][ξBip(2'-Et-4'-OMe)][hhPhe]-NH2)
100%,0.5 h,,75%,0.5 h,100%,,100%,,,0.5 h,(9) h,CCCCC(C)(NC(=O)[C@H](CC(C)C)NC(=O)[C@H](CCC(N)=O)NC(=O)[C@@H](NC(=O)[C@H](CCC(=O)O)NC(=O)C(C)(C)NC(=O)[C@@H](NC(=O)C1(N)CC1)C(C)C)[C@@H](C)CC)C(=O)N[C@@H](Cc1c[nH]cn1)C(=O)N[C@@H](CCC(N)=O)C(=O)N[C@@H](CCCCNC(=N)N)C(=O)N[C@@H](C)C(=O)N[C@@H](CCCCNC(=N)N)C(=O)NC(C)(Cc1c[nH]c2ccccc12)C(=O)N[C@@H](CCCc1ccccc1)C(N)=O (stereo partly drawn) [Seq. ID. 945] (H-[Ac3c]V[Aib]EIQL[ξαMeNle]HQ[hArg]A[hArg][ξαMeW][hhPhe]-NH2)
